Tested on: A2780
Assay: Cytotoxicity against human A2780 cells
Type: functional, cell-based

| Compound | IC50 |
| --- | --- |
| C/C=C(\C)C(=O)O[C@@H]1[C@@H](OC(C)=O)[C@@H]2O[C@H]3[C@H](O[C@@H](CCC)CCCCC[C@H](OC(C)=O)C(=O)CCC(=O)OC[C@@H](O2)[C@H]1OC(=O)/C=C/c1ccccc1)O[C@H](C)[C@H](OC(C)=O)[C@@H]3OC(C)=O | 19100 nM |
| C/C=C(\C)C(=O)O[C@@H]1[C@@H](OC(C)=O)[C@@H]2O[C@H]3[C@H](O[C@@H](CCC)CCCCCCC(=O)CCC(=O)OC[C@@H](O2)[C@H]1OC(=O)/C=C/c1ccccc1)O[C@H](C)[C@H](OC(C)=O)[C@@H]3OC(C)=O | 15800 nM |
| C/C=C(\C)C(=O)O[C@@H]1[C@@H](O)[C@@H]2O[C@H]3[C@H](O[C@@H](CCC)CCCCCCC(=O)CCC(=O)OC[C@@H](O2)[C@H]1OC(=O)/C=C/c1ccccc1)O[C@H](C)[C@H](OC(C)=O)[C@@H]3O [IPOMOEASSIN A] | 500 nM |
| C/C=C(\C)C(=O)O[C@@H]1[C@@H](O)[C@@H]2O[C@H]3[C@H](O[C@@H](CCC)CCCCCCC(=O)CCC(=O)OC[C@@H](O2)[C@H]1OC(=O)/C=C/c1ccccc1)O[C@H](C)[C@H](O)[C@@H]3O [IPOMOEASSIN B] | 400 nM |
| C/C=C(\C)C(=O)O[C@@H]1[C@@H](O)[C@@H]2O[C@H]3[C@H](O[C@@H](CCC)CCCCC[C@H](O)C(=O)CCC(=O)OC[C@@H](O2)[C@H]1OC(=O)/C=C/c1ccccc1)O[C@H](C)[C@H](OC(C)=O)[C@@H]3O [IPOMOEASSIN C] | 2900 nM |
| C/C=C(\C)C(=O)O[C@@H]1[C@@H](O)[C@@H]2O[C@H]3[C@H](O[C@@H](CCC)CCCCC[C@H](OC(C)=O)C(=O)CCC(=O)OC[C@@H](O2)[C@H]1OC(=O)/C=C/c1ccccc1)O[C@H](C)[C@H](OC(C)=O)[C@@H]3O [IPOMOEASSIN D] | 35 nM |
| C/C=C(\C)C(=O)O[C@@H]1[C@@H](O)[C@@H]2O[C@H]3[C@H](O[C@@H](CCC)CCCCC[C@H](OC(C)=O)C(=O)CCC(=O)OC[C@@H](O2)[C@H]1OC(=O)/C=C/c1ccccc1)O[C@H](C)[C@H](O)[C@@H]3O [IPOMOEASSIN E] | 3300 nM |
